# Reference: publication PMC7174318, “The novel E. coli cell division protein, YtfB, plays a role in eukaryotic cell adhesion” (Scientific Reports, 2020)
# Biological target: T1, YtfB (his6-YtfB, C-terminal domain) (Escherichia coli, UniProt P39310)
# T1 construct: extracellular C-terminal region, residues 52-212 incl; LysM-like (OapA) domain; His6 tag kept; pETMCSIII-ytfB, expressed in E. coli BL21 AI
# Assay: surface plasmon resonance, steady state affinity, YtfB immobilised by amine coupling on CM5
# Type: binding
# Details: PBS running buffer
# T1 sequence (P39310 52-212): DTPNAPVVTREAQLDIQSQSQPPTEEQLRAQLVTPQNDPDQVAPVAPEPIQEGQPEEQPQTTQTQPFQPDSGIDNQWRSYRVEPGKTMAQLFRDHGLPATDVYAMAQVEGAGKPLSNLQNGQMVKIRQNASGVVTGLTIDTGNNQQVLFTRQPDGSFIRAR
row,Compound,Kd [µM]
1,"OC[C@H]1O[C@H](O[C@H]2[C@H](O)[C@H](O)C(O)O[C@@H]2CO)[C@@H](O)[C@@H](O)[C@@H]1O (stereo partly drawn) [5E, α1–4mannobiose]",0.0312
2,"OC[C@H]1O[C@H](O[C@H]2[C@H](O)[C@@H](CO)OC(O)[C@H]2O)[C@@H](O)[C@@H](O)[C@@H]1O (stereo partly drawn) [5D, α1–3mannobiose]",0.345
3,"OC[C@H]1O[C@H](O[C@@H]2C(O)O[C@H](CO)[C@@H](O)[C@@H]2O)[C@@H](O)[C@@H](O)[C@@H]1O (stereo partly drawn) [5C, α1–2mannobiose]",0.0433
4,CC(=O)N[C@H]1[C@H](O[C@H]2[C@H](O)[C@@H](NC(C)=O)C(O)O[C@@H]2CO)O[C@H](CO)[C@@H](O[C@@H]2O[C@H](CO)[C@@H](O[C@@H]3O[C@H](CO)[C@@H](O)[C@H](O)[C@H]3NC(C)=O)[C@H](O)[C@H]2NC(C)=O)[C@@H]1O (stereo partly shown) [tetraose (N’acetylglucosamine)],0.463 ± 0.071
5,"CC(=O)N[C@H]1[C@H](O[C@H]2[C@H](O)[C@@H](NC(C)=O)C(O)O[C@@H]2CO)O[C@H](CO)[C@@H](O[C@@H]2O[C@H](CO)[C@@H](O)[C@H](O)[C@H]2NC(C)=O)[C@@H]1O (stereo partly shown) [4B, GlcNAcβ1-4GlcNAcβ1-4GlcNAc]",3.3 ± 2.13
6,"CC(=O)N[C@H]1[C@H](O[C@H]2[C@H](O)[C@@H](NC(C)=O)[C@H](O[C@H]3[C@H](O)[C@@H](NC(C)=O)C(O)O[C@@H]3CO)O[C@@H]2CO)O[C@H](CO)[C@@H](O[C@@H]2O[C@H](CO)[C@@H](O[C@@H]3O[C@H](CO)[C@@H](O[C@@H]4O[C@H](CO)[C@@H](O)[C@H](O)[C@H]4NC(C)=O)[C@H](O)[C@H]3NC(C)=O)[C@H](O)[C@H]2NC(C)=O)[C@@H]1O (stereo partly shown) [4D, hexaacetylchitohexaose]",0.0248 ± 0.0053

# Same assay, conditions: PBS running buffer; read-out: KD
row,Compound,Kd [µM]
1,"OC[C@H]1O[C@H](OC[C@H]2OC(O)[C@@H](O)[C@@H](O)[C@@H]2O)[C@@H](O)[C@@H](O)[C@@H]1O (stereo partly drawn) [5F, α1–6 mannobiose]",0.112
